What was measured:
rat orexin 1 receptor = rat orexin 1 receptor (Rattus norvegicus, UniProt P56718); assay: Rat orexin 1 receptor radioligand binding (competitive); details: HEK293 cells stably expressing rat orexin 1 receptor; 4 nM radioligand; averages of 2-20 runs; read-out: rOX1 Ki
Outline: (§1)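 Competition binding used HEK293 cells expressing rat OX1 or CHO cells expressing human OX1, with 4 nM final [3H]-labelled thiazolyl-oxadiazolyl-pyrrolidinyl methanone radioligand in PBS. Compounds were tested at 7 concentrations (0.1 nM–10 μM) for 60 min at room temperature, then filtered; 10 μM almorexant defined nonspecific binding. Ki was derived from the one-site IC50 and the radioligand Kd.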

human orexin 1 receptor = human orexin 1 receptor (Homo sapiens (Human), UniProt O43613); assay: Human orexin 1 receptor radioligand binding (competitive); details: CHO cells stably expressing human orexin 1 receptor; 4 nM radioligand; averages of 2-20 runs; read-out: hOX1 Ki
human orexin 1 receptor, sequence (O43613 whole entry): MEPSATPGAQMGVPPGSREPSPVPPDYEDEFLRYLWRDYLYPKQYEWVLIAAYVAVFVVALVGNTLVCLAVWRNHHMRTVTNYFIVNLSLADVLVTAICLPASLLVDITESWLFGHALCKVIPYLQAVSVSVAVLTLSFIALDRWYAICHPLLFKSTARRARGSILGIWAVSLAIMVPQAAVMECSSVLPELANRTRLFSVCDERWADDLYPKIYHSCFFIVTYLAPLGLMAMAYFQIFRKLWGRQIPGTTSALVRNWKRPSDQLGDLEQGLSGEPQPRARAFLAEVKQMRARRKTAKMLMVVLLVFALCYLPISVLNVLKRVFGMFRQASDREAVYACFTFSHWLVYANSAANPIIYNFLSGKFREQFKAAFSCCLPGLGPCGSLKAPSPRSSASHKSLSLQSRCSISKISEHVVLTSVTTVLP
Outline: as §1

human orexin 2 receptor = human orexin 2 receptor (Homo sapiens (Human), UniProt O43614); assay: Human orexin 2 receptor radioligand binding ([3H]-EMPA competition); details: HEK293 stably expressing human orexin 2 receptor; 2 nM [3H]-EMPA; averages of 2-20 runs; read-out: hOX2 Ki
human orexin 2 receptor, sequence (O43614 whole entry): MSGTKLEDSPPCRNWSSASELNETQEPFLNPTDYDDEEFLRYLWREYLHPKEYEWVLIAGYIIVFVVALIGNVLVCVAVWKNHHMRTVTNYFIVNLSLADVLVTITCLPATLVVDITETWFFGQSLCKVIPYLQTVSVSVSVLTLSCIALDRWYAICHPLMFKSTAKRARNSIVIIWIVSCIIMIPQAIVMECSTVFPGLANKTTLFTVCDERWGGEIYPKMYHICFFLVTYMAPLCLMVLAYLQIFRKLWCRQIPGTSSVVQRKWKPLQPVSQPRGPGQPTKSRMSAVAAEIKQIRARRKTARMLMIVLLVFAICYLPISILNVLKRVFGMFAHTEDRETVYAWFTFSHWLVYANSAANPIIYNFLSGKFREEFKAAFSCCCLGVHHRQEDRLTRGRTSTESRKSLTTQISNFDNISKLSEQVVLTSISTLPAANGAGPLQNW
Outline: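 Membranes-free whole HEK293 cells stably expressing human OX2 receptor incubated with [3H]-EMPA and compound (7 concentrations, 0.1 nM–10 μM, ≤0.1% DMSO) for 60 min at room temperature; nonspecific binding with 10 μM almorexant. Filtration and scintillation counting; one-site IC50 converted to Ki using predetermined Kd, triplicates averaged over 2-20 runs.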

Row | Ki (rat orexin 1 receptor) | Ki (human orexin 1 receptor) | Ki (human orexin 2 receptor) | Compound
1 | 7 nM | 6 nM | 136 nM | C[C@@H]1[C@H]2C[C@@H](Oc3cnc4cc(F)ccc4n3)[C@H](C2)N1C(=O)c1cccc(F)c1-n1nccn1 (relative stereo) [Example 187, (3-fluoro-2-(2H-1,2,3-triazol-2-yl)phenyl)((1S*,3R*,4R*,6R*)-6-((6-fluoroquinoxalin-2-yl)oxy)-3-methyl-2-azabicyclo[2.2.1]heptan-2-yl)methanone]
2 | 6 nM | 7 nM | 107 nM | C[C@@H]1[C@H]2C[C@@H](Oc3cnc4cc(F)ccc4n3)[C@H](C2)N1C(=O)c1ccccc1-n1nccn1 (relative stereo) [Example 188, (2-(2H-1,2,3-triazol-2-yl)phenyl)((1S*,3R*,4R*,6R*)-6-((6-fluoroquinoxalin-2-yl)oxy)-3-methyl-2-azabicyclo[2.2.1]heptan-2-yl)methanone]
3 | 41 nM | 42 nM | 109 nM | Cc1ccc(-n2nccn2)c(C(=O)N2[C@H](C)[C@H]3C[C@@H](Oc4cnc5cc(F)c(F)cc5n4)[C@@H]2C3)n1 (relative stereo) [Example 189, ((1S*,3R*,4R*,6R*)-6-((6,7-difluoroquinoxalin-2-yl)oxy)-3-methyl-2-azabicyclo[2.2.1]heptan-2-yl)(6-methyl-3-(2H-1,2,3-triazol-2-yl)pyridin-2-yl)methanone]
4 | 24 nM | 84 nM | 5200 nM | CC1C2CC(Oc3ccc(C(F)(F)F)cn3)C(C2)N1C(=O)c1cccc(F)c1-c1ncccn1 (single isomer, unassigned) [Example 1, (R/S)-(3-fluoro-2-(pyrimidin-2-yl)phenyl)(3-methyl-6-((5-(trifluoromethyl)pyridin-2-yl)oxy)-2-azabicyclo[2.2.1]heptan-2-yl)methanone]
5 | 11 nM | 16 nM | 1100 nM | CC1C2CC(Oc3ccc(C(F)(F)F)cn3)C(C2)N1C(=O)c1cccc(F)c1-c1ncccn1 (single isomer, unassigned) [Example 8, (R/S)-(3-fluoro-2-(pyrimidin-2-yl)phenyl)(3-methyl-6-((5-(trifluoromethyl)pyridin-2-yl)oxy)-2-azabicyclo[2.2.1]heptan-2-yl)methanone]
6 | 16 nM | 19 nM | 349 nM | Cc1ccc(-c2ncccn2)c(C(=O)N2[C@H](C)[C@H]3C[C@@H](Nc4ccc(C(F)(F)F)cn4)[C@@H]2C3)n1 [Example 60, (6-methyl-3-(pyrimidin-2-yl)pyridin-2-yl)((1S,3R,4S,6R)-3-methyl-6-((5-(trifluoromethyl)pyridin-2-yl)amino)-2-azabicyclo[2.2.1]heptan-2-yl)methanone]
7 | 48 nM | 35 nM | 3760 nM | Cc1ccc(-c2ncccn2)c(C(=O)N2[C@H](CF)[C@@H]3CC[C@H]2[C@H](Oc2ccc(C(F)(F)F)cn2)C3)n1 [Example 74, ((1S,3S,4R,6R)-3-(fluoromethyl)-6-((5-(trifluoromethyl)pyridin-2-yl)oxy)-2-azabicyclo[2.2.2]octan-2-yl)(6-methyl-3-(pyrimidin-2-yl)pyridin-2-yl)methanone]
8 | 92 nM | 66 nM | > 10000 nM | O=C(c1ccccc1-c1ncccn1)N1[C@H](CF)[C@@H]2CC[C@H]1[C@H](Oc1ccc(C(F)(F)F)cn1)C2 [Example 75, ((1S,3S,4R,6R)-3-(fluoromethyl)-6-((5-(trifluoromethyl)pyridin-2-yl)oxy)-2-azabicyclo[2.2.2]octan-2-yl)(2-(pyrimidin-2-yl)phenyl)methanone]
9 | 36 nM | 46 nM | > 10000 nM | O=C(c1cc(F)ccc1-c1ncccn1)N1[C@H](CF)[C@@H]2CC[C@H]1[C@H](Oc1ccc(C(F)(F)F)cn1)C2 [Example 76, (5-fluoro-2-(pyrimidin-2-yl)phenyl)((1S,3S,4R,6R)-3-(fluoromethyl)-6-((5-(trifluoromethyl)pyridin-2-yl)oxy)-2-azabicyclo[2.2.2]octan-2-yl)methanone]
10 | 13 nM | 20 nM | 4780 nM | Cc1ccc(-n2nccn2)c(C(=O)N2[C@H](CF)[C@@H]3CC[C@H]2[C@H](Oc2ccc(C(F)(F)F)cn2)C3)n1 [Example 77, ((1S,3S,4R,6R)-3-(fluoromethyl)-6-((5-(trifluoromethyl)pyridin-2-yl)oxy)-2-azabicyclo[2.2.2]octan-2-yl)(6-methyl-3-(2H-1,2,3-triazol-2-yl)pyridin-2-yl)methanone]
11 | 122 nM | 102 nM | > 10000 nM | O=C(c1cc(F)ccc1-n1nccn1)N1[C@H](CF)[C@@H]2CC[C@H]1[C@H](Oc1ccc(C(F)(F)F)cn1)C2 [Example 78, (5-fluoro-2-(2H-1,2,3-triazol-2-yl)phenyl)((1S,3S,4R,6R)-3-(fluoromethyl)-6-((5-(trifluoromethyl)pyridin-2-yl)oxy)-2-azabicyclo[2.2.2]octan-2-yl)methanone]
12 | 49 nM | 46 nM | > 10000 nM | O=C(c1cccc(F)c1-c1ncccn1)N1[C@H](CF)[C@@H]2CC[C@H]1[C@H](Oc1ccc(C(F)(F)F)cn1)C2 [Example 79, (3-fluoro-2-(pyrimidin-2-yl)phenyl)((1S,3S,4R,6R)-3-(fluoromethyl)-6-((5-(trifluoromethyl)pyridin-2-yl)oxy)-2-azabicyclo[2.2.2]octan-2-yl)methanone]
13 | 43 nM | 35 nM | 4170 nM | O=C(c1cc(F)ccc1-c1ncc(F)cn1)N1[C@H](CF)[C@@H]2CC[C@H]1[C@H](Oc1ccc(C(F)(F)F)cn1)C2 [Example 80, (5-fluoro-2-(5-fluoropyrimidin-2-yl)phenyl)((1S,3S,4R,6R)-3-(fluoromethyl)-6-((5-(trifluoromethyl)pyridin-2-yl)oxy)-2-azabicyclo[2.2.2]octan-2-yl)methanone]
14 | 7 nM | 5 nM | 146 nM | Cc1ccc(-n2nccn2)c(C(=O)N2[C@H](C)[C@H]3C[C@@H](Oc4ccc(C(F)F)cn4)[C@@H]2C3)n1 [Example 110, [(1R,2R,4S,5R)-5-[[5-(difluoromethyl)-2-pyridyl]oxy]-2-methyl-3-azabicyclo[2.2.1]heptan-3-yl]-[6-methyl-3-(triazol-2-yl)-2-pyridyl]methanone]
15 | 12 nM | 14 nM | 2400 nM | C[C@@H]1[C@@H]2CC[C@@H]([C@H](Oc3ccc(C(F)(F)F)cn3)C2)N1C(=O)c1cccc(F)c1-c1ncccn1 [Example 148, (3-fluoro-2-pyrimidin-2-yl-phenyl)-[(1R,2R,4S,5R)-2-methyl-5-[[5-(trifluoromethyl)-2-pyridyl]oxy]-3-azabicyclo[2.2.2]octan-3-yl]methanone]
16 | 6 nM | 10 nM | 1100 nM | Cc1ccc(-n2nccn2)c(C(=O)N2[C@H](C)[C@@H]3CC[C@H]2[C@H](Oc2ccc(C(F)(F)F)cn2)C3)n1 [Example 156, [6-methyl-3-(triazol-2-yl)-2-pyridyl]-[(1R,2R,4S,5R)-2-methyl-5-[[5-(trifluoromethyl)-2-pyridyl]oxy]-3-azabicyclo[2.2.2]octan-3-yl]methanone]
17 | 29 nM | 129 nM | 6000 nM | C[C@@H]1[C@@H]2CC[C@@H]([C@H](Oc3ccc(C(F)(F)F)cn3)C2)N1C(=O)c1ccccc1-n1nccn1 [Example 157, [(1R,2R,4S,5R)-2-methyl-5-[[5-(trifluoromethyl)-2-pyridyl]oxy]-3-azabicyclo[2.2.2]octan-3-yl]-[2-(triazol-2-yl)phenyl]methanone]
18 | 35 nM | 138 nM | 2700 nM | Cc1ccc(-c2ncccn2)c(C(=O)N2[C@H](C)[C@@H]3CC[C@H]2[C@H](Oc2ccc(C(F)(F)F)cn2)C3)n1 [Example 158, (6-methyl-3-pyrimidin-2-yl-2-pyridyl)-[(1R,2R,4S,5R)-2-methyl-5-[[5-(trifluoromethyl)-2-pyridyl]oxy]-3-azabicyclo[2.2.2]octan-3-yl]methanone]
19 | 14 nM | 41 nM | 2800 nM | C[C@@H]1[C@@H]2CC[C@@H]([C@H](Oc3ccc(C(F)(F)F)cn3)C2)N1C(=O)c1ncccc1-n1nccn1 [Example 159, [(1R,2R,4S,5R)-2-methyl-5-[[5-(trifluoromethyl)-2-pyridyl]oxy]-3-azabicyclo[2.2.2]octan-3-yl]-[3-(triazol-2-yl)-2-pyridyl]methanone]
20 | 8 nM | 11 nM | 872 nM | Cc1cnc(C(=O)N2[C@H](C)[C@@H]3CC[C@H]2[C@H](Oc2ccc(C(F)(F)F)cn2)C3)c(-n2nccn2)c1 [Example 160, [5-methyl-3-(triazol-2-yl)-2-pyridyl]-[(1R,2R,4S,5R)-2-methyl-5-[[5-(trifluoromethyl)-2-pyridyl]oxy]-3-azabicyclo[2.2.2]octan-3-yl]methanone]

Row | Compound | Ki (rat orexin 1 receptor) | Ki (human orexin 1 receptor) | Ki (human orexin 2 receptor)
21 | Cc1cnc(C(=O)N2[C@H](C)[C@@H]3CC[C@H]2[C@H](Oc2ccc(C(F)(F)F)cn2)C3)c(-c2ncccn2)c1 [Example 161, (5-methyl-3-pyrimidin-2-yl-2-pyridyl)-[(1R,2R,4S,5R)-2-methyl-5-[[5-(trifluoromethyl)-2-pyridyl]oxy]-3-azabicyclo[2.2.2]octan-3-yl]methanone] | 4 nM | 8 nM | 5000 nM
